Assays:
[1] = tested on: panel of 224 recombinant kinases; parameters: method as in PMID 26501955; conditions: Nanosyn; cited from earlier work
[2] = molecular target: PIM3 (Homo sapiens, UniProt Q86V86); parameters: purchased Eurofins; method as in earlier work; conditions: cited from earlier work
[3] = molecular target: AURKC (Homo sapiens, UniProt Q9UQB9); experiment: DiscoverX scanMAX competition binding assay; parameters: purchased Eurofins DiscoverX (scanMAX) / Eurofins enzymatic assays
From the text: (§1) Based on its narrow profile when tested in the combined Nanosyn and TSA panels, GW296115 was included in the recently released Kinase Chemogenomic Set (KCGS)[15]. All of the data presented in the Introduction section was collected prior to the inclusion of GW296115 in KCGS and everything that follows has been subsequently generated. Since its inclusion in PKIS and more recently KCGS, we have carried out a broader round of screening at DiscoverX. This profiling data has not been previously released and is reported here for the first time. GW296115 was profiled against 403 wild type human kinases at 1 μM using the DiscoverX scanMAX screening platform, which employs an active site-directed competition binding assay to quantitatively measure interactions between test compounds and kinases, [16]. GW296115 inhibited 25 kinases > 90% at 1 μM, resulting in a selectivity index (S10) of 0.062 at 1 μM (Table S2, Fig. 1C)[17].
(§2) The scanMAX assays were performed at Eurofins DiscoverX Corporation as previously described.

[4] = molecular target: PDGFRB (Homo sapiens, UniProt P09619); experiment: DiscoverX scanMAX competition binding assay; parameters: purchased Eurofins DiscoverX (scanMAX) / Eurofins enzymatic assays
From the text: as §1, §2

[5] = molecular target: MINK1/MINK (Homo sapiens, UniProt Q8N4C8); experiment: DiscoverX scanMAX competition binding assay; parameters: purchased Eurofins DiscoverX (scanMAX) / Eurofins enzymatic assays
From the text: as §1, §2

[6] = molecular target: PLK4 (Homo sapiens, UniProt O00444); experiment: DiscoverX scanMAX competition binding assay; parameters: purchased Eurofins DiscoverX (scanMAX) / Eurofins enzymatic assays
From the text: as §1, §2

[7] = molecular target: TNIK (Homo sapiens, UniProt Q9UKE5); experiment: DiscoverX scanMAX competition binding assay; parameters: purchased Eurofins DiscoverX (scanMAX) / Eurofins enzymatic assays
From the text: as §1, §2

[8] = molecular target: LRRK2 (Homo sapiens, UniProt Q5S007); experiment: DiscoverX scanMAX competition binding assay; parameters: purchased Eurofins DiscoverX (scanMAX) / Eurofins enzymatic assays
From the text: as §1, §2

[9] = molecular target: STK17A/DRAK1 (Homo sapiens, UniProt Q9UEE5); experiment: DiscoverX scanMAX competition binding assay; parameters: purchased Eurofins DiscoverX (scanMAX) / Eurofins enzymatic assays
Chain of STK17A/DRAK1 (Q9UEE5 whole entry): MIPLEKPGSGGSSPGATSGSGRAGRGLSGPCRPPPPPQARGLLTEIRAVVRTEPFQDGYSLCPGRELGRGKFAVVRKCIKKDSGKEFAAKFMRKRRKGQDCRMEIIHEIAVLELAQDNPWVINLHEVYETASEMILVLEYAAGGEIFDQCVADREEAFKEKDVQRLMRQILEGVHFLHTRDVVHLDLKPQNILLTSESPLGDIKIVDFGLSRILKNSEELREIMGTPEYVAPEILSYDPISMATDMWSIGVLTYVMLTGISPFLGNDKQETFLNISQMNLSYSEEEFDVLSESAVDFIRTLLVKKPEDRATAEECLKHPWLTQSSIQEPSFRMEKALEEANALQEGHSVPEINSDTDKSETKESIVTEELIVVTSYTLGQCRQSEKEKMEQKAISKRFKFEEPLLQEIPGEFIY
From the text: as §1, §2

[10] = molecular target: DAPK3/ZIPK (Homo sapiens, UniProt O43293); experiment: DiscoverX scanMAX competition binding assay; parameters: purchased Eurofins DiscoverX (scanMAX) / Eurofins enzymatic assays
From the text: as §1, §2

[11] = molecular target: SGK1/SGK (Homo sapiens, UniProt O00141); experiment: DiscoverX scanMAX competition binding assay; parameters: purchased Eurofins DiscoverX (scanMAX) / Eurofins enzymatic assays
From the text: as §1, §2

[12] = molecular target: STK33 (Homo sapiens, UniProt Q9BYT3); experiment: DiscoverX scanMAX competition binding assay; parameters: purchased Eurofins DiscoverX (scanMAX) / Eurofins enzymatic assays
From the text: as §1, §2

[13] = molecular target: FLT3 (Homo sapiens, UniProt P36888); experiment: DiscoverX scanMAX competition binding assay; parameters: purchased Eurofins DiscoverX (scanMAX) / Eurofins enzymatic assays
Chain of FLT3 (P36888 27-993): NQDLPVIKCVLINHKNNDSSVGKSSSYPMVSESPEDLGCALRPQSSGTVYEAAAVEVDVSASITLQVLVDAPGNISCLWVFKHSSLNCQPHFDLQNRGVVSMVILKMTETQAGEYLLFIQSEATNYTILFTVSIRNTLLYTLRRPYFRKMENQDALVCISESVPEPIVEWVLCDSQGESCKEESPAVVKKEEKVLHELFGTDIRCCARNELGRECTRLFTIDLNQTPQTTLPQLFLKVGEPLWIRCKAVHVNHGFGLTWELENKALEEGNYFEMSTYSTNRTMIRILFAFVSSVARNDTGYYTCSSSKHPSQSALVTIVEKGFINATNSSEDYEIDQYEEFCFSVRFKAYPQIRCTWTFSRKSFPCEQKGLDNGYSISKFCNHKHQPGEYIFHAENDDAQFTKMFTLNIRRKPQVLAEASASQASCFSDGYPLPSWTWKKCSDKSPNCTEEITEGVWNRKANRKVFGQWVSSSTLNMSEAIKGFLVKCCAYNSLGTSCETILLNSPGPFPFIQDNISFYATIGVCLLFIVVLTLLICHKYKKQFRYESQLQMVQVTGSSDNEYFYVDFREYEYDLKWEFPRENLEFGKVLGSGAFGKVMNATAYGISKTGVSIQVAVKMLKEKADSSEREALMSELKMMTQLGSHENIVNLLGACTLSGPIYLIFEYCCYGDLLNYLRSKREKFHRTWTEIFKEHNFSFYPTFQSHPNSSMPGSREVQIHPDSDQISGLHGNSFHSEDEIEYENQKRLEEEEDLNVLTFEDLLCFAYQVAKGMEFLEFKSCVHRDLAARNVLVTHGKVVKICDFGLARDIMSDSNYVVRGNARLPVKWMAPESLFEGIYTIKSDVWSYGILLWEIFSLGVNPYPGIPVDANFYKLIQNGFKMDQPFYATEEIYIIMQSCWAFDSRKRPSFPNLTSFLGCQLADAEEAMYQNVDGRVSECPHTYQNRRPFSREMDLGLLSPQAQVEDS
From the text: as §1, §2

[14] = molecular target: PRKG2/PKG2 (Homo sapiens, UniProt Q13237); experiment: DiscoverX scanMAX competition binding assay; parameters: purchased Eurofins DiscoverX (scanMAX) / Eurofins enzymatic assays
From the text: as §1, §2

[15] = molecular target: PDGFRA (Homo sapiens, UniProt P16234); experiment: DiscoverX scanMAX competition binding assay; parameters: purchased Eurofins DiscoverX (scanMAX) / Eurofins enzymatic assays
Chain of PDGFRA (P16234 24-1089): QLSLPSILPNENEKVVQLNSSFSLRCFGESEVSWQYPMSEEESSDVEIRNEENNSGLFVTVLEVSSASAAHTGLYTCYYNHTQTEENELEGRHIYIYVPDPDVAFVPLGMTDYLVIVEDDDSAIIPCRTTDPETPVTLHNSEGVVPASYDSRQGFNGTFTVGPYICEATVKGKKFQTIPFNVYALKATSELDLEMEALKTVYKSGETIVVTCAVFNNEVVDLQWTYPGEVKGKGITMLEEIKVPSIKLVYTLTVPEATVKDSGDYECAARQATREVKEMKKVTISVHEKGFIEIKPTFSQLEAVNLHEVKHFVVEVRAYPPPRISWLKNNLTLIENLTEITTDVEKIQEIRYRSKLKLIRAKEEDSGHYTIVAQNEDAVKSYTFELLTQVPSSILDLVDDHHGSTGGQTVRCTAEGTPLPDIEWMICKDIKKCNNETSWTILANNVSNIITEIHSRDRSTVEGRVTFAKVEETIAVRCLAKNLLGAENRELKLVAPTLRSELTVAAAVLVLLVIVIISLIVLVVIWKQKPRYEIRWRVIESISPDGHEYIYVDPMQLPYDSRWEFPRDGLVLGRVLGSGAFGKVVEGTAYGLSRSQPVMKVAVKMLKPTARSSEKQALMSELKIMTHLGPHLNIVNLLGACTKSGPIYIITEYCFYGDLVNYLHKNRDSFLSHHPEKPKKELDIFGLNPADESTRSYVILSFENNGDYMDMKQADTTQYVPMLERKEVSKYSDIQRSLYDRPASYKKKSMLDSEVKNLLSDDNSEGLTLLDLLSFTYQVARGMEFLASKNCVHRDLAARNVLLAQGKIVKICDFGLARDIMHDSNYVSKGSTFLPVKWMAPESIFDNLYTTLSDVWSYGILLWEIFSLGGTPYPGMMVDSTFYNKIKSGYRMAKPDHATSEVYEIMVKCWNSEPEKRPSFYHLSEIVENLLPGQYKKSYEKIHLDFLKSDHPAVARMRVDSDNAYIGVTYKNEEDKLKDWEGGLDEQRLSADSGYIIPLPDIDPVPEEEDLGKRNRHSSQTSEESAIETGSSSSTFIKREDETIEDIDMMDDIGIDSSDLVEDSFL
From the text: as §1, §2

[16] = tested on: 60 cancer cell lines; parameters: method as in PMID 26501955; conditions: cited from earlier work
[17] = tested on: GAK; parameters: method as in earlier work; conditions: cited from earlier work
[18] = tested on: RPS6KA3/RSK2; experiment: DiscoverX scanMAX competition binding assay; parameters: species or system human
From the text: as §1, §2

[19] = molecular target: T1, EPHB6 (Homo sapiens, UniProt O15197); experiment: DiscoverX scanMAX competition binding assay
T1 construct: purchased Eurofins DiscoverX Corporation
From the text: as §1, §2

[20] = molecular target: T2, RIOK3 (Homo sapiens, UniProt O14730); experiment: DiscoverX scanMAX competition binding assay
T2 construct: purchased Eurofins DiscoverX (scanMAX) / Eurofins enzymatic assays
From the text: as §1, §2

[21] = molecular target: T3, MYLK3/caMLCK (Homo sapiens, UniProt Q32MK0); experiment: DiscoverX scanMAX competition binding assay
T3 construct: purchased Eurofins DiscoverX Corporation
From the text: as §1, §2

[22] = molecular target: T4, GAK (Homo sapiens, UniProt O14976); experiment: DiscoverX scanMAX competition binding assay
T4 construct: purchased Eurofins DiscoverX (scanMAX) / Eurofins enzymatic assays
From the text: as §1, §2

[23] = molecular target: T5, MAP2K5 (Homo sapiens, UniProt Q13163); experiment: DiscoverX scanMAX competition binding assay
T5 construct: purchased Eurofins DiscoverX (scanMAX) / Eurofins enzymatic assays
T5 sequence (Q13163 whole entry): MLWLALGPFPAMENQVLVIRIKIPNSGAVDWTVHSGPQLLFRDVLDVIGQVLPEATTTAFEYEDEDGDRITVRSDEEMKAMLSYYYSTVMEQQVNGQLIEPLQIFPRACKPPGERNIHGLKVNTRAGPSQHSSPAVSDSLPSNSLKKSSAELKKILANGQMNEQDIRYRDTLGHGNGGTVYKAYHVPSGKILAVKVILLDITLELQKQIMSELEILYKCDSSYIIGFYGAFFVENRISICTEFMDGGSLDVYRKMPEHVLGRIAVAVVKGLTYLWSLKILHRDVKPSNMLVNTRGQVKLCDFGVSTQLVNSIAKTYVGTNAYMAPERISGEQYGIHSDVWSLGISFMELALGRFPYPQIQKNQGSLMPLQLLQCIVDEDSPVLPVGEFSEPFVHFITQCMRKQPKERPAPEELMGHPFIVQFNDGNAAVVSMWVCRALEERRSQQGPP
From the text: as §1, §2

[24] = molecular target: T6, MAP3K19 (Homo sapiens, UniProt Q56UN5); experiment: DiscoverX scanMAX competition binding assay
T6 construct: purchased Eurofins DiscoverX (scanMAX) / Eurofins enzymatic assays
T6 sequence (Q56UN5 whole entry): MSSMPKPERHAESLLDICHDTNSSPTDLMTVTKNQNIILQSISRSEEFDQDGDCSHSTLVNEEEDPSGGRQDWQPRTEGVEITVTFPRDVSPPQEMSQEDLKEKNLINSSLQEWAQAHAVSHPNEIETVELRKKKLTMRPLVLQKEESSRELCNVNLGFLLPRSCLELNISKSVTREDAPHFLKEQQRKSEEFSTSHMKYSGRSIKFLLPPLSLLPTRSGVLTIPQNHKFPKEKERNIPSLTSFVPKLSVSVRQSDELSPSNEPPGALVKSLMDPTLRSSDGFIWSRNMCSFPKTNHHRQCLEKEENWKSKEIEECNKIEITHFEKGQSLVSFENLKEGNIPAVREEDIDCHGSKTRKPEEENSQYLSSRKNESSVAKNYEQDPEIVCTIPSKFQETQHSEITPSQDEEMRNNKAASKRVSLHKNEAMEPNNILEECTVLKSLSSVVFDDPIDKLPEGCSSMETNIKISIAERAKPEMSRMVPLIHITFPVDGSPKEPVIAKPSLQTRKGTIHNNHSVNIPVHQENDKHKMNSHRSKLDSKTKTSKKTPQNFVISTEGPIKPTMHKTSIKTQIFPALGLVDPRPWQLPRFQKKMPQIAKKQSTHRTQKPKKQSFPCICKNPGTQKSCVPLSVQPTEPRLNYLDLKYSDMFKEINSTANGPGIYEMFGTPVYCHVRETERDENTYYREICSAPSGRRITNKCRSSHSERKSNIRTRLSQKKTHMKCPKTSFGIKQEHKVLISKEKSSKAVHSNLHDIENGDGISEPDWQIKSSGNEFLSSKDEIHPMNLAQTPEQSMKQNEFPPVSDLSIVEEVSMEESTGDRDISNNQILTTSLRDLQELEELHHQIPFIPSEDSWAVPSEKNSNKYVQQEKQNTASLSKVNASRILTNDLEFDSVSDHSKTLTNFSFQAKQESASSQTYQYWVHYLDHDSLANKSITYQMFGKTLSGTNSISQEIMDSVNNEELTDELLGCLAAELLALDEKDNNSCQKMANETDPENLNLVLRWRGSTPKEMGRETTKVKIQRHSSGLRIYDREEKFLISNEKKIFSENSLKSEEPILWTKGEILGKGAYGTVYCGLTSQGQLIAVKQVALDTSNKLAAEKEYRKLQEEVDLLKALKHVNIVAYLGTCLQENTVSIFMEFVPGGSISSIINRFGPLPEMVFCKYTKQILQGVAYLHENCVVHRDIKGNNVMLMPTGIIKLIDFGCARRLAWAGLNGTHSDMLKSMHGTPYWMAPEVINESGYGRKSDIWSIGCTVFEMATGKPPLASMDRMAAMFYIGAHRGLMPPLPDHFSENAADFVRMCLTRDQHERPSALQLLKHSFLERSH
From the text: as §1, §2

[25] = molecular target: T7, RPS6KA3/RSK2 (Homo sapiens, UniProt P51812); experiment: Eurofins kinase enzymatic radiometric assay; type: biochemical; conditions: Km of ATP, 9-point curve in duplicate
T7 construct: purchased Eurofins
From the text: Due to our interest in the activity of GW296115 on several understudied IDG kinases, we collected full dose–response curves for all wild type kinases inhibited ≥ 75% in the DiscoverX panel that were offered by Eurofins. Having data in orthogonal formats is a powerful way to confirm inhibitory activity and adds rigor to our results. Eurofins has kinase enzymatic radiometric assays for 35 of the kinases on this list (Table S2) and a kinase enzymatic LANCE assay for one additional kinase (MAP2K5/MEK5).
Eurofins kinase enzymatic radiometric assays were carried out at the Km of ATP in dose–response (9-pt curve in duplicate) for each kinase for which it was offered.

Chain of AURKC (Q9UQB9 whole entry): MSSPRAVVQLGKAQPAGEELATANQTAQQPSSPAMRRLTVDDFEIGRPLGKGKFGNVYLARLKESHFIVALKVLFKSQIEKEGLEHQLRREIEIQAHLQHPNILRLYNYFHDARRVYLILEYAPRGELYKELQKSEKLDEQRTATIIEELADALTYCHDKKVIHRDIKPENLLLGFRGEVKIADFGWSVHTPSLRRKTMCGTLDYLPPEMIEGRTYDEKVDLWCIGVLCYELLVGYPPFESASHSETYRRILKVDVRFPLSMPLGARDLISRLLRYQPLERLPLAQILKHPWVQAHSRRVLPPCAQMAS

For `COc1ccc2[nH]c3c4[nH]c5ccc(OC)cc5c4c4c(c3c2c1)C(=O)NC4=O` [GW296115], the “inhibition at 100 nM of the 3 kinases inhibited > 90% at 1 μM” value [1] is listed as greater than 70%, the “TSA ΔTm at 10 μM (°C)” value [2] is listed as 12.0 °C and the inhibition at 1 µM [3] is listed as 94.1%. For the same compound, the inhibition at 1 µM [4] was 99.8%, the inhibition at 1 µM [5] was 96% and the inhibition at 1 µM [6] was 99.5%. For the same compound, the inhibition at 1 µM [7] was 97.7%, the inhibition at 1 µM [8] was 100% and the inhibition at 1 µM [9] was 99.6%. For the same compound, the inhibition at 1 µM [10] was 96.9%, the inhibition at 1 µM [11] was 91.2% and the inhibition at 1 µM [12] was 92%. The inhibition at 1 µM [13] was 91.5%, the inhibition at 1 µM [14] was 98.8% and the inhibition at 1 µM [15] was 91.4%. For the same compound, the “effect on cell growth, NCI60 panel” value [16] was “does not impact cell growth”, the “TSA ΔTm at 10 μM (°C)” value [17] was 8.4 °C and the “DiscoverX % Inhibition at 1 μM” value [18] was 84%. The inhibition at 1 µM [19] was 85%, the inhibition at 1 µM [20] was 89% and the inhibition at 1 µM [21] was 80%. The inhibition at 1 µM [22] was 96.7%, the inhibition at 1 µM [23] was 99.5% and the inhibition at 1 µM [24] was 100%. For the same compound, the IC50 [25] was 11 nM.

From PMC7522982, “PKIS deep dive yields a chemical starting point for dark kinases and a cell active BRSK2 inhibitor” (Scientific Reports, 2020)
